Assay results as given in patent US10167300B2, “Metalloenzyme inhibitor compounds as fungicides” (priority 2014, dated 2019).
Like-named read-outs stand apart in the source and are kept apart here.

Experiment: Type B (low volume, EC formulation, track sprayer 200 L/ha) assay, leaf blotch of wheat, SEPTTR field isolate (FI SEPTTR)
Type: in vivo, Mycosphaerella graminicola on wheat plants (variety Yuma)
Conditions: Zymoseptoria tritici, 72 h, 100 g/ha
Protocol: Example A: Evaluation of Fungicidal Activity: Leaf Blotch of Wheat (Mycosphaerella graminicola; Anamorph: Septoria tritici; Bayer Code SEPTTR)
For Type A assays, technical grades of the experimental fungicides in Table 4 below were dissolved in acetone, and then mixed with nine volumes of water containing 110 ppm Triton X-100. The fungicide solutions were applied onto wheat seedlings using an automated booth sprayer. For Type B assays, emulsifiable concentrate (EC) formulations of technical grades of the experimental fungicides in Table 4 below were prepared at 10% (w/v), and then mixed with 150 volumes of 0.1% Trycol 5941. These solutions were applied onto wheat seedlings using an automated track sprayer at 200 L/ha. All sprayed plants were allowed to air dry prior to further handling.
Wheat plants (variety Yuma) were grown from seed in a greenhouse in 50% mineral soil/50% soil-less Metro mix until the first leaf was fully emerged, with 7-10 seedlings per pot. Prior to or after application of experimental fungicides, plants were inoculated either with spores of a standard laboratory SEPTTR isolate (SI SEPTTR) or with spores from a SEPTTR field isolate collected from Wellsbourne, England in 2012 (FI SEPTTR). After inoculation the plants were kept for 3 days at 20° C. in 100% relative humidity (one day in a dark dew chamber followed by two days in a lighted dew chamber). Plants were then transferred to a 20° C. greenhouse for disease development. When disease symptoms were fully expressed on untreated plants, infection levels on treated plants were assessed on a scale of 0 to 100 percent disease severity. Percent disease control was calculated using the ratio of disease severity on treated plants relative to untreated plants.

[1] = field isolate, low volume EC, 3 Day Curative, wheat (Yuma), read-out: Disease Control, FI SEPTTR Type B Assay (100 g/ha) 3 DC
[2] = field isolate, low volume EC, 3 Day Protectant, wheat (Yuma), read-out: Disease Control, FI SEPTTR Type B Assay (100 g/ha) 3 DP
[3] = SEPTTR field isolate, low volume Type B assay, 3 Day Curative, wheat leaf blotch, read-out: Disease Control, FI SEPTTR Type B Assay (100 g/ha) 3 DC
[4] = SEPTTR field isolate, low volume Type B assay, 3 Day Protectant, wheat leaf blotch, read-out: Disease Control, FI SEPTTR Type B Assay (100 g/ha) 3 DP

Row | SMILES | pest or weed control at 100 g/ha [1] | pest or weed control at 100 g/ha [2] | pest or weed control at 100 g/ha [3] | pest or weed control at 100 g/ha [4]
1 | CC(C)(C)C(O)(Cc1cccnc1)c1ccc(-c2ccc(OCC(F)(F)F)nc2)cn1 (centres unmarked) [Compound 234] | 40 to 59% | 60 to 79% |  | 
2 | C#CCOC(c1cncnc1)(c1ccc(-c2ccc(OC(F)(F)F)cc2F)cn1)C(C)(C)C (centres unmarked) [Compound 189] | 40 to 59% | 80 to 100% |  | 
3 | CC(C)(C)C(O)(Cc1cncnc1)c1ccc(-c2ccc(C3(C#N)CC3)cc2)cn1 (centres unmarked) [Compound 178] | < 40% | 60 to 79% |  | 
4 | CCC(OC)(c1cncnc1)c1ccc(-c2ccc(OC(F)(F)F)cc2)cn1 (centres unmarked) [Compound 213] | 60 to 79% | 60 to 79% |  | 
5 | COc1ncncc1C(O)(c1ccc(-c2ccc(OCC(F)(F)F)cc2)cn1)C(C)(C)C (centres unmarked) [Compound 203] | 40 to 59% | 80 to 100% |  | 
6 | CC#CC(O)(c1cncnc1)c1ccc(-c2ccc(OC(F)(F)F)cc2)cn1 (centres unmarked) [Compound 266] |  |  | < 40% | 60 to 79%
7 | COc1ncncc1C(O)(c1ccc(-c2ccc(OCC(F)(F)F)nc2)cn1)C(C)(C)C (centres unmarked) [Compound 218] | < 40% | 80 to 100% |  | 
8 | CC(C)(C)C(O)(c1cncnc1)c1ccc(-c2ccc(C3(C#N)CC3)cc2F)cn1 (centres unmarked) [Compound 236] | 80 to 100% | 80 to 100% |  | 
9 | CC(C)(C)C(O)(Cc1cncnc1)c1ccc(-c2ccc(SC(F)(F)F)cc2)cn1 (centres unmarked) [Compound 219] | 40 to 59% | 60 to 79% |  | 
10 | CO/N=C(/C)c1ccc(-c2ccc(C(O)(c3cncnc3)C(C)(C)C)nc2)cc1 (centres unmarked) [Compound 132, (Z)-1-(4-(6-(1-hydroxy-2,2-dimethyl-1-(pyrimidin-5-yl)propyl)pyridin-3-yl)phenyl)ethanone O-methyl oxime] | 80 to 100% | 80 to 100% |  | 
11 | CC(C)(C)C(O)(c1cncnc1)c1ccc(-c2ccc(C3(C#N)CCC3)cc2F)cn1 (centres unmarked) [Compound 251] | 80 to 100% | 80 to 100% |  | 
12 | C#CCOC(c1cncnc1)(c1ccc(-c2ccc(OC(F)(F)F)cc2)cn1)C1CC1 (centres unmarked) [Compound 255] | < 40% | 60 to 79% |  | 
13 | CCC(C#N)(CC)c1ccc(-c2ccc(C(O)(c3cncnc3)C(C)(C)C)nc2)c(C)c1 (centres unmarked) [Compound 264] |  |  | 80 to 100% | 80 to 100%
14 | COC(c1cncnc1)(c1ccc(-c2ccc(OC(F)(F)F)cc2F)cn1)C1CC1 (centres unmarked) [Compound 200] | < 40% | 80 to 100% |  | 
15 | C#CCOC(c1cncnc1)(c1ccc(-c2ccc(OC(F)(F)F)cc2)cn1)C(C)(C)C (centres unmarked) [Compound 197] | < 40% | 80 to 100% |  | 
16 | CCOC(c1cncnc1)(c1ccc(-c2ccc(OC(F)(F)F)cc2F)cn1)C(C)(C)C (centres unmarked) [Compound 220] | < 40% | 80 to 100% |  | 
17 | CCC(C#N)(CC)c1ccc(-c2ccc(C(O)(c3cncnc3)C(C)(C)C)nc2)c(F)c1 (centres unmarked) [Compound 268] |  |  | 80 to 100% | 80 to 100%
18 | CCc1cc(C(C)(C)C#N)ccc1-c1ccc(C(O)(c2cncnc2)C(C)(C)C)nc1 (centres unmarked) [Compound 179] | 80 to 100% | 80 to 100% |  | 
19 | CC(C)(C)C(O)(c1ccc(-c2ccc(C3(C#N)CC3)cc2)cn1)c1cnccn1 (centres unmarked) [Compound 229] | 60 to 79% | 60 to 79% |  | 
20 | COC(c1cncnc1)(c1ccc(-c2ccc(C(C)(C)C#N)cc2C)cn1)C(C)(C)C (centres unmarked) [Compound 267] |  |  | 60 to 79% | 80 to 100%

Row | SMILES | pest or weed control at 100 g/ha [1] | pest or weed control at 100 g/ha [2] | pest or weed control at 100 g/ha [3] | pest or weed control at 100 g/ha [4]
21 | CC(C)(C#N)c1ccc(-c2ccc(C(O)(c3cncnc3)C(C)(C)C)nc2)nc1 (centres unmarked) [Compound 183] | 80 to 100% | 80 to 100% |  | 
22 | Cc1cc(C2(C#N)CCC2)ccc1-c1ccc(C(O)(c2cncnc2)C(C)(C)C)nc1 (centres unmarked) [Compound 212] | 80 to 100% | 80 to 100% |  | 
23 | OC(c1cncnc1)(c1ccc(-c2ccc(OC(F)(F)F)cc2F)cn1)C1CC1 (centres unmarked) [Compound 184] | < 40% | 40 to 59% |  | 
24 | CSc1cc(C(C)(C)C#N)ccc1-c1ccc(C(O)(c2cncnc2)C(C)(C)C)nc1 (centres unmarked) [Compound 216, 2-(4-(6-(1-hydroxy-2,2-dimethyl-1-(pyrimidin-5-yl)propyl)pyridin-3-yl)-3-(methylthio)phenyl)-2-methylpropanenitrile] | 80 to 100% | 80 to 100% |  | 
25 | CC(C)(C#N)c1ccc(-c2ccc(C(O)(c3cnccn3)C(C)(C)C)nc2)cc1 (centres unmarked) [Compound 188] | 60 to 79% | 80 to 100% |  | 
26 | C#CCOC(c1cncnc1)(c1ccc(-c2ccc(OC(F)(F)F)cc2F)cn1)C(C)C (centres unmarked) [Compound 191] | < 40% | 80 to 100% |  | 
27 | C#CCOC(O)(c1cncnc1)c1ccc(-c2ccc(OC(F)(F)F)cc2)cn1 (centres unmarked) [Compound 243] | < 40% | 80 to 100% |  | 
28 | CCC(O)(c1cncnc1)c1ccc(-c2ccc(OC(F)(F)F)cc2F)cn1 (centres unmarked) [Compound 205] | 40 to 59% | 80 to 100% |  | 
29 | CCOC(C)(c1cncnc1)c1ccc(-c2ccc(OC(F)(F)F)cc2)cn1 (centres unmarked) [Compound 177] | < 40% | 60 to 79% |  | 
30 | CC#CC(OC)(c1cncnc1)c1ccc(-c2ccc(OC(F)(F)F)cc2F)cn1 (centres unmarked) [Compound 182] | < 40% | 60 to 79% |  | 
31 | CC(C)(C)C(O)(c1cncc(F)c1)c1ccc(-c2ccc(OC(F)(F)F)cc2)cn1 (centres unmarked) [Compound 202] | 60 to 79% | 60 to 79% |  | 
32 | CCOC(c1cncnc1)(c1ccc(-c2ccc(OC(F)(F)F)cc2)cn1)C(C)(C)C (centres unmarked) [Compound 198] | < 40% | 80 to 100% |  | 
33 | CC#CC(O)(c1cncnc1)c1ccc(-c2ccc(OC(F)(F)F)cc2F)cn1 (centres unmarked) [Compound 185] | < 40% | 80 to 100% |  | 
34 | CC(C)(C)C(O)(c1cncnc1)c1ccc(-c2ccc(F)cc2F)cn1 (centres unmarked) [Compound 164] | 80 to 100% | 80 to 100% |  | 
35 | CC(C)(C)C(O)(c1cncnc1)c1ccc(-c2c(F)cc(OC(F)(F)F)cc2F)cn1 (centres unmarked) [Compound 210] | 80 to 100% | 80 to 100% |  | 
36 | COc1ncncc1C(O)(c1ccc(-c2ccc(C3(C#N)CC3)cc2F)cn1)C(C)(C)C (centres unmarked) [Compound 233] | 80 to 100% | 80 to 100% |  | 
37 | COC(c1cncnc1)(c1ccc(-c2ccc(OC(F)(F)F)cc2C)cn1)C(C)(C)C (centres unmarked) [Compound 261] |  |  | 80 to 100% | 80 to 100%
38 | COc1ncncc1C(O)(c1ccc(-c2ccc(C(C)(C)C#N)cc2F)cn1)C(C)(C)C (centres unmarked) [Compound 256] | 80 to 100% | 80 to 100% |  | 
39 | CCOC(c1cncnc1)(c1ccc(-c2ccc(OC(F)(F)F)cc2F)cn1)C(C)C (centres unmarked) [Compound 176] | < 40% | 60 to 79% |  | 
40 | COC(c1cncnc1)(c1ccc(-c2ccc(OC(F)(F)F)cc2)cn1)C(C)C (centres unmarked) [Compound 194] | < 40% | 80 to 100% |  | 
